Assay results as given in US11976083B2, “Inhibitors of peptidylarginine deiminases” (Gilead Sciences, Inc., priority 2020, dated 2024).

Molecular target: T1, human PAD4 (Homo sapiens, UniProt Q9UM07)
T1 construct: human PAD4 (NM_012387), A2-P663, was PCR amplified; His-SUMO (N, cleaved yes); made in house; host or cells: E. coli BL21(DE3)
Assay: In vitro PAD4 BAEE biochemical assay
Settings: BAEE substrate 3 mM, 5 nM PAD4, 2 mM calcium chloride; geometric mean of multiple experiments
How it was run: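 Assay was run at 25 °C using 3 mM BAEE and 5 nM human PAD4 after a 30 min compound preincubation; ammonia produced over 2 h was quantified by OPA-derived fluorescence. Full inhibition was defined by 50 µM BB-Cl-Amidine, and IC50 came from variable-slope nonlinear regression.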

T1 sequence (Q9UM07 2-663): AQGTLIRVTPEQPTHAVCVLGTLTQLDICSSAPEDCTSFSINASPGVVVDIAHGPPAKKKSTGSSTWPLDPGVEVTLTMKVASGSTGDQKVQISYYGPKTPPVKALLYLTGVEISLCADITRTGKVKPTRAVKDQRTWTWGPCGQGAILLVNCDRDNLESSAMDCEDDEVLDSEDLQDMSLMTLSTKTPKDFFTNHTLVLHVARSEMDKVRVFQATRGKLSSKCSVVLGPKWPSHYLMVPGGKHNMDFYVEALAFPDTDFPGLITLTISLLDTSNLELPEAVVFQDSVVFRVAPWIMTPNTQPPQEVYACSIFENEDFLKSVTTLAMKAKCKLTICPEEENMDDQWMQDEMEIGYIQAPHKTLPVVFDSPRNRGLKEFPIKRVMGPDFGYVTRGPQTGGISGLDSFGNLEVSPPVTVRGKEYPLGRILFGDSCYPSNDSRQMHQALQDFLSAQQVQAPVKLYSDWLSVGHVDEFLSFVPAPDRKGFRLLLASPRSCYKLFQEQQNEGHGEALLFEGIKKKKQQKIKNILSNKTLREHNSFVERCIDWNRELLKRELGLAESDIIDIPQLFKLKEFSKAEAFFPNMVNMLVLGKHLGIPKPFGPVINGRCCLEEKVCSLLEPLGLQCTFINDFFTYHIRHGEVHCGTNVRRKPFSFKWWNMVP

SMILES | IC50
COc1cc(C(=O)N2CC[C@@H](O)[C@@H](N)C2)cc2nc(-c3cc4ccc5nc4n3CC(F)(F)CCC[C@@H]3C[C@H]3C(=O)N[C@@H]5C)n(C)c12 [Example 680, (2~{R},5~{R},7~{R})-14-[5-[(3~{S},4~{R})-3-amino-4-hydroxy-piperidine-1-carbonyl]-7-methoxy-1-methyl-benzimidazol-2-yl]-11,11-difluoro-2-methyl-3,13,19-triazatetracyclo[11.5.2.0^ {5,7}.0^{16,20}]icosa-1(19), 14,16(20),17-tetraen-4-one] | 34 nM
COc1cc(C(=O)N2C[C@H](N)[C@H](OC)[C@@H](F)C2)cc2nc(-c3cc4ccc5nc4n3CC(F)(F)CCC[C@@H]3C[C@H]3C(=O)N[C@@H]5C)n(C)c12 [Example 681, (2~{R},5~{R},7~{R})-14-[5-[(3~{S},4~{S}, 5~{S})-3-amino-5-fluoro-4-methoxy-piperidine-1-carbonyl]-7-methoxy-1-methyl-benzimidazol-2-yl]-11,11-difluoro-2-methyl-3,13,19-triazatetracyclo [11.5.2.0^{5,7}.0^{16,20}] icosa-1(19),14,16(20), 17-tetraen-4-one] | 39 nM
C[C@H]1NC(=O)[C@@H]2C[C@@H]2CCCC(F)(F)Cn2c(-c3nc4cc(C(=O)N5C[C@H](N)[C@@H]6CC[C@H]5C6)cc(F)c4n3C3CC3)cc3ccc1nc32 [Example 682, (2~{R},5~{R},7~{S})-14-[5-[(1~{S},4~{R},5~{R})-4-amino-2-azabicyclo[3.2.1]octane-2-carbonyl]-1-cyclopropyl-7-fluoro-benzimidazol-2-yl]-11,11-difluoro-2-methyl-3,13,19-triazatetracyclo[11.5.2.0^ {5,7}.0^{16,20}] icosa-1(19),14,16(20), 17-tetraen-4-one] | 28 nM
C[C@@H]1c2ccc3cc(-c4nc5cc(C(=O)N6C[C@H](N)[C@@H]7CC[C@H]6C7)cc(F)c5n4C4CC4)n(c3n2)CC(F)(F)CCC[C@H]2C[C@H]2C(=O)N1C [Example 683, (2~{R},5~{R},7~{S})-14-[5-[(1~{S},4~{R},5~ {R})-4-amino-2-azabicyclo[3.2.1]octane-2-carbonyl]-1-cyclopropyl-7-fluoro-benzimidazol-2-yl]-11,11-difluoro-2,3-dimethyl-3,13,19-triazatetracyclo [11.5.2.0^{5,7}.0^{16,20}] icosa-1(19),14,16(20), 17-tetraen-4-one] | 16 nM
C[C@H]1NC(=O)C(C)(C)CCCCCn2c(-c3nc4cc(C(=O)N5C[C@H](N)[C@@H]6CC[C@H]5C6)cc(F)c4n3C3CC3)cc3ccc1nc32 [Example 684, (10~{R})-16-[5-[(1~{S}, 4~{R},5~{R})-4-amino-2-azabicyclo [3.2.1]octane-2-carbonyl]-1-cyclopropyl-7-fluoro-benzimidazol-2-yl]-7,7,10-trimethyl-1,9,18-triazatricyclo[9.5.2.0^ {14,17}]octadeca-11(18), 12,14(17),15-tetraen-8-one] | 20 nM
COc1ccc2c(n1)CCCCCn1c(-c3nc4cc(C(=O)N5C[C@H](N)[C@@H]6CC[C@H]5C6)cc(F)c4n3C3CC3)cc3ccc(nc31)[C@@H](C)NC2=O [Example 685, (2~{R})-17-[5-[(1~{S},4~{R}, 5~{R})-4-amino-2-azabicyclo[3.2.1]octane-2-carbonyl]-1-cyclopropyl-7-fluoro-benzimidazol-2-yl]-8-methoxy-2-methyl-3,9,16,22-tetrazatetracyclo [14.5.2.0^{5,10}.0^{19, 23}]tricosa-1(22),5(10), 6,8,17,19(23),20-heptaen-4-one] | 13 nM
COc1cc(C(=O)N2CC[C@@H](OC)[C@@H](N)C2)cc2nc(-c3cc4ccc5nc4n3CCCCCC[C@]3(CCCO3)C(=O)N[C@@H]5C)n(C)c12 [Example 686, (8~{S},11~{R})-17-[5-[(3~{S},4~{R})-3-amino-4-methoxy-piperidine-1-carbonyl]-7-methoxy-1-methyl-benzimidazol-2-yl]-11-methyl-spiro[1,10,19-triazatricyclo [10.5.2.0^{15,18}]nonadeca-12(19),13,15(18),16-tetraene-8,2′-tetrahydrofuran]-9-one] | 44 nM
COc1cc(C(=O)N2CC[C@@H](OC)[C@@H](N)C2)cc2nc(-c3cc4ccc5nc4n3CCCCCC[C@@]3(CCCO3)C(=O)N[C@@H]5C)n(C)c12 [Example 687, (8~{R},11~{R})-17-[5-[(3~{S),4~{R})-3-amino-4-methoxy-piperidine-1-carbonyl]-7-methoxy-1-methyl-benzimidazol-2-yl]-11-methyl-spiro[1,10,19-triazatricyclo[10.5.2.0^ {15,18}]nonadeca-12(19),13,15(18),16-tetraene-8,2′-tetrahydrofuran]-9-one] | 64 nM
COc1cc(C(=O)N2CC[C@@H](OC)[C@@H](N)C2)cc2nc(-c3cc4ccc5nc4n3CCCCC[C@H]3C[C@]3(F)C(=O)N[C@@H]5C)n(C)c12 [Example 688, (2~{R},5~{R},7~{S})-14-[5-[(3~{S},4~{R})-3-amino-4-methoxy-piperidine-1-carbonyl]-7-methoxy-1-methyl-benzimidazol-2-yl]-5-fluoro-2-methyl-3,13,19-triazatetracyclo[11.5.2.0^ {5,7}.0^{16,20}]icosa-1(19), 14,16(20),17-tetraen-4-one] | 719 nM
COc1cc(C(=O)N2CC[C@@H](OC)[C@@H](N)C2)cc2nc(-c3cc4ccc5nc4n3CCCCC[C@]3(F)C[C@H]3C(=O)N[C@@H]5C)n(C)c12 [Example 689, (2~{R},5~{S},7~{S})-14-[5-[(3~{S},4~{R})-3-amino-4-methoxy-piperidine-1-carbonyl]-7-methoxy-1-methyl-benzimidazol-2-yl]-7-fluoro-2-methyl-3,13,19-triazatetracyclo[11.5.2.0^ {5,7}.0^{16,20}]icosa-1(19),14,16(20),17-tetraen-4-one] | 39 nM
CO[C@@H]1CCN(C(=O)c2ccc3c(c2)nc(-c2cc4ccc5nc4n2CC(F)(F)CCC[C@@H]2C[C@H]2C(=O)N[C@@H]5C)n3C2CC2)C[C@@H]1N [Example 690, (2~{R},5~{R},7~{R})-14-[5-[(3~{S},4~{R})-3-amino-4-methoxy-piperidine-1-carbonyl]-1-cyclopropyl-benzimidazol-2-yl]-11,11-difluoro-2-methyl-3,13,19-triazatetracyclo [11.5.2.0^{5,7}.0^{16,20}] icosa-1(19),14,16(20), 17-tetraen-4-one] | 54 nM
CO[C@@H]1CCN(C(=O)c2ccc3c(c2)nc(-c2cc4ccc5nc4n2CCCCC[C@@H]2C[C@H]2C(=O)N[C@@H]5C)n3C2CC2)C[C@@H]1N [Example 691, (2~{R},5~{R},7~{R})-14-[5-[(3~{S},4~{R})-3-amino-4-methoxy-piperidine-1-carbonyl]-1-cyclopropyl-benzimidazol-2-yl]-2-methyl-3,13,19-triazatetracyclo[11.5.2.0^ {5,7}.0^{16,20}]icosa-1(19),14,16(20),17-tetraen-4-one] | 33 nM
COc1cc(C(=O)N2CC[C@@H](OC)[C@@H](N)C2)cc2nc(-c3cc4ccc5nc4n3CC(F)(F)CCC[C@@H]3C[C@H]3C(=O)N(C)[C@@H]5C)n(C)c12 [Example 692, (2~{R},5~{R},7~{R})-14-[5-[(3~{S},4~{R})-3-amino-4-methoxy-piperidine-1-carbonyl]-7-methoxy-1-methyl-benzimidazol-2-yl]-11,11-difluoro-2,3-dimethyl-3,13,19-triazatetracyclo[11.5.2.0^ {5,7}.0^{16,20}]icosa-1(19),14,16(20),17-tetraen-4-one] | 27 nM
CO[C@@H]1CCN(C(=O)c2ccc3c(c2)nc(-c2cc4ccc5nc4n2CCCCCc2nc(Cl)ccc2C(=O)N[C@@H]5C)n3C2CC2)C[C@@H]1N [Example 693, (2~{R})-17-[5-[(3~{S},4~ {R})-3-amino-4-methoxy-piperidine-1-carbonyl]-1-cyclopropyl-benzimidazol-2-yl]-8-chloro-2-methyl-3,9,16,22-tetrazatetracyclo [14.5.2.0^{5,10}.0^ {19,23}]tricosa-1(22), 5(10),6,8,17,19(23), 20-heptaen-4-one] | 18 nM
COc1cc(C(=O)N2CC[C@@H](OC)[C@@H](N)C2)cc2nc(-c3cc4ccc5nc4n3CCCCC[C@H]3C(F)(F)[C@]3(C)C(=O)N[C@@H]5C)n(C)c12 [Example 694, (2~{R},5~{S},7~{R})-14-[5-[(3~{S},4~{R})-3-amino-4-methoxy-piperidine-1-carbonyl]-7-methoxy-1-methyl-benzimidazol-2-yl]-6,6-difluoro-2,5-dimethyl-3,13,19-triazatetracyclo[11.5.2.0^ {5,7}.0^{16,20}]icosa-1(19), 14,16(20),17-tetraen-4-one] | 268 nM
COc1cc(C(=O)N2CC[C@@H](OC)[C@@H](N)C2)cc2nc(-c3cc4ccc5nc4n3CCCCC[C@@H]3C[C@@]3(F)C(=O)N[C@@H]5C)n(C)c12 [Example 695, (2~{R},5~{S},7~{R})-14-[5-[(3~{S},4~{R})-3-amino-4-methoxy-piperidine-1-carbonyl]-7-methoxy-1-methyl-benzimidazol-2-yl]-5-fluoro-2-methyl-3,13,19-triazatetracyclo[11.5.2.0^ {5,7}.0^{16,20}]icosa-1(19), 14,16(20),17-tetraen-4-one] | 57 nM
CO[C@@H]1CCN(C(=O)c2ccc3c(c2)nc(-c2cc4ccc5nc4n2CCCCCc2ccnc(C)c2C(=O)N[C@@H]5C)n3C2CC2)C[C@@H]1N [Example 696, (2~{R})-17-[5-[(3~{S}, 4~{R})-3-amino-4-methoxy-piperidine-1-carbonyl]-1-cyclopropyl-benzimidazol-2-yl]-2,6-dimethyl-3,7,16,22-tetrazatetracyclo [14.5.2.0^{5,10}.0^{19,23}] tricosa-1(22),5(10), 6,8,17,19(23),20-heptaen-4-one] | 48 nM
